Data on 1 compound can be found in paper PMC5218480 (PLoS ONE, 2017).

For this assay, the system named is MV-4-11 cells. As to the kind of experiment: Gene expression microarray analysis (Affymetrix PrimeView) and GSEA. In kind it is cell-based, human. More on the design: RFU PODN (11730768_x_at) / Fold change /veh PODN (11730768_x_at) / RFU LINC00158 (11744669_a_at) / Fold change /veh LINC00158 (11744669_a_at) / RFU DUSP10 (11751237_a_at) / Fold change /veh DUSP10 (11751237_a_at) / RFU ID3 (11757404_x_at) / Fold change /veh ID3 (11757404_x_at) / RFU PLEKHG5 (11737974_s_at) / Fold change /veh PLEKHG5 (11737974_s_at) / RFU LRRC4B (11730491_at) / Fold change /veh LRRC4B (11730491_at) / RFU GIMAP4 (11747438_a_at) / Fold change /veh GIMAP4 (11747438_a_at) / RFU KRT8 (11758183_x_at) / Fold change /veh KRT8 (11758183_x_at) / RFU CNN1 (11734310_a_at) / Fold change /veh CNN1 (11734310_a_at) / RFU VPS37D (11726825_at) / Fold change /veh VPS37D (11726825_at) / RFU C10orf10 (11716522_x_at) / Fold change /veh C10orf10 (11716522_x_at) / RFU KIR2DL2 /// KIR2DL4 /// KIR2DL5A /// KIR2DL5B /// KIR2DS1 /// KIR2DS2 /// KIR2DS3 /// KIR2DS4 /// KIR3DL3 /// KIR3DL3 /// KIR3DS1 (11738374_at) / Fold change /veh KIR2DL2 /// KIR2DL4 /// KIR2DL5A /// KIR2DL5B /// KIR2DS1 /// KIR2DS2 /// KIR2DS3 /// KIR2DS4 /// KIR3DL3 /// KIR3DL3 /// KIR3DS1 (11738374_at) / RFU C1QL1 (11718748_at) / Fold change /veh C1QL1 (11718748_at) / RFU TMPRSS4 (11747572_a_at) / Fold change /veh TMPRSS4 (11747572_a_at) / RFU HAMP (11756126_x_at) / Fold change /veh HAMP (11756126_x_at) / RFU RNFT2 (11725882_a_at) / Fold change /veh RNFT2 (11725882_a_at) / RFU NR4A2 (11747474_a_at) / Fold change /veh NR4A2 (11747474_a_at) / RFU ABCC12 (11746883_a_at) / Fold change /veh ABCC12 (11746883_a_at) / RFU TMEM136 (11760407_x_at) / Fold change /veh TMEM136 (11760407_x_at) / RFU CLDN22 /// WWC2 (11732394_at) / Fold change /veh CLDN22 /// WWC2 (11732394_at) / RFU HLA-DPB1 (11760878_x_at) / Fold change /veh HLA-DPB1 (11760878_x_at) / RFU SPINT1 (11716480_a_at) / Fold change /veh SPINT1 (11716480_a_at) / RFU GAP43 (11754022_s_at) / Fold change /veh GAP43 (11754022_s_at) / RFU A4GNT (11735810_at) / Fold change /veh A4GNT (11735810_at) / RFU PRB3 (11715151_x_at) / Fold change /veh PRB3 (11715151_x_at) / RFU TUBB4B (11761932_at) / Fold change /veh TUBB4B (11761932_at) / RFU CAPN14 (11732068_a_at) / Fold change /veh CAPN14 (11732068_a_at) / RFU TMCC2 (11721928_a_at) / Fold change /veh TMCC2 (11721928_a_at) / RFU IRGQ (11745062_a_at) / Fold change /veh IRGQ (11745062_a_at) / RFU FAM174B (11720279_a_at) / Fold change /veh FAM174B (11720279_a_at) / RFU TMPRSS4 (11748680_a_at) / Fold change /veh TMPRSS4 (11748680_a_at) / RFU FAM212B (11763350_a_at) / Fold change /veh FAM212B (11763350_a_at) / RFU PLEKHG5 (11743358_a_at) / Fold change /veh PLEKHG5 (11743358_a_at) / RFU ZSCAN30 (11745921_a_at) / Fold change /veh ZSCAN30 (11745921_a_at) / RFU CMKLR1 (11741424_a_at) / Fold change /veh CMKLR1 (11741424_a_at) / RFU LOC101060620 /// MAPK8IP1 (11723275_at) / Fold change /veh LOC101060620 /// MAPK8IP1 (11723275_at) / RFU SPTSSB (11747773_x_at) / Fold change /veh SPTSSB (11747773_x_at) / RFU PRSS12 (11739890_at) / Fold change /veh PRSS12 (11739890_at) / RFU BIN1 (11741810_x_at) / Fold change /veh BIN1 (11741810_x_at) / RFU WNT11 (11732464_a_at) / Fold change /veh WNT11 (11732464_a_at) / RFU C10orf10 (11716521_a_at) / Fold change /veh C10orf10 (11716521_a_at) / RFU C5orf56 (11738089_at) / Fold change /veh C5orf56 (11738089_at) / RFU CYB561 (11721691_x_at) / Fold change /veh CYB561 (11721691_x_at) / RFU ANKRD19P (11752326_a_at) / Fold change /veh ANKRD19P (11752326_a_at) / RFU OR2T12 /// OR2T33 /// OR2T8 (11738714_s_at) / Fold change /veh OR2T12 /// OR2T33 /// OR2T8 (11738714_s_at) / RFU VCAN (11748164_a_at) / Fold change /veh VCAN (11748164_a_at) / RFU JSRP1 (11732532_at) / Fold change /veh JSRP1 (11732532_at) / RFU KRTAP10-11 (11738290_x_at) / Fold change /veh KRTAP10-11 (11738290_x_at) / RFU MYO3A (11730013_a_at) / Fold change /veh MYO3A (11730013_a_at) / RFU EBF3 (11725865_a_at) / Fold change /veh EBF3 (11725865_a_at) / RFU CAMK2N1 (11719241_x_at) / Fold change /veh CAMK2N1 (11719241_x_at) / RFU C5orf56 (11738088_a_at) / Fold change /veh C5orf56 (11738088_a_at) / RFU OLFML3 (11715873_a_at) / Fold change /veh OLFML3 (11715873_a_at) / RFU LOC100653217 /// NTM (11731650_a_at) / Fold change /veh LOC100653217 /// NTM (11731650_a_at) / RFU MAPK11 (11762145_a_at) / Fold change /veh MAPK11 (11762145_a_at) / RFU FIZ1 (11724087_x_at) / Fold change /veh FIZ1 (11724087_x_at) / RFU OASL (11726364_x_at) / Fold change /veh OASL (11726364_x_at) / RFU SOX15 (11748057_x_at) / Fold change /veh SOX15 (11748057_x_at) / RFU CD79A (11719716_a_at) / Fold change /veh CD79A (11719716_a_at) / RFU HIST1H1D (11736915_at) / Fold change /veh HIST1H1D (11736915_at) / RFU CASKIN2 (11723855_a_at) / Fold change /veh CASKIN2 (11723855_a_at) / RFU LOC730098 (11760151_x_at) / Fold change /veh LOC730098 (11760151_x_at) / RFU OR4N2 (11742367_at) / Fold change /veh OR4N2 (11742367_at) / RFU PRRT2 (11749266_a_at) / Fold change /veh PRRT2 (11749266_a_at) / RFU SNX32 (11753110_a_at) / Fold change /veh SNX32 (11753110_a_at) / RFU CDHR5 (11726645_a_at) / Fold change /veh CDHR5 (11726645_a_at) / RFU RCAN1 (11760418_a_at) / Fold change /veh RCAN1 (11760418_a_at) / RFU FAM167A (11723789_a_at) / Fold change /veh FAM167A (11723789_a_at) / RFU FAM26E (11764081_at) / Fold change /veh FAM26E (11764081_at) / RFU ISYNA1 (11749810_s_at) / Fold change /veh ISYNA1 (11749810_s_at) / RFU ACY1 (11761880_at) / Fold change /veh ACY1 (11761880_at) / RFU 11764098_at / Fold change /veh 11764098_at / RFU SAMD14 (11745864_x_at) / Fold change /veh SAMD14 (11745864_x_at) / RFU NPB (11741838_a_at) / Fold change /veh NPB (11741838_a_at) / RFU TMPRSS6 (11731388_a_at) / Fold change /veh TMPRSS6 (11731388_a_at) / RFU KRTAP10-2 (11738614_at) / Fold change /veh KRTAP10-2 (11738614_at) / RFU ARHGAP8 /// PRR5-ARHGAP8 (11727945_x_at) / Fold change /veh ARHGAP8 /// PRR5-ARHGAP8 (11727945_x_at) / RFU KRTAP5-7 /// NADSYN1 (11734609_at) / Fold change /veh KRTAP5-7 /// NADSYN1 (11734609_at) / RFU RASL12 (11751679_a_at) / Fold change /veh RASL12 (11751679_a_at) / RFU CDKN2B (11736163_a_at) / Fold change /veh CDKN2B (11736163_a_at) / RFU PRF1 (11729649_at) / Fold change /veh PRF1 (11729649_at) / RFU, ZNF638 /// ZNF638-IT1 / Fold change vs veh, ZNF638 /// ZNF638-IT1 / RFU, PANK3 / Fold change vs veh, PANK3 / RFU, SH3YL1 / Fold change vs veh, SH3YL1 / RFU, ZEB2 / Fold change vs veh, ZEB2 / RFU, NRIP1 / Fold change vs veh, NRIP1 / RFU, PTTG1IP / Fold change vs veh, PTTG1IP / RFU, CAPN2 / Fold change vs veh, CAPN2 / RFU, MED14 / Fold change vs veh, MED14 / RFU, SNORA58 / Fold change vs veh, SNORA58 / RFU, C1orf63 / Fold change vs veh, C1orf63 / RFU, LRRFIP1 / Fold change vs veh, LRRFIP1 / RFU, NDUFAF7 / Fold change vs veh, NDUFAF7 / RFU, SLC12A2 / Fold change vs veh, SLC12A2 / RFU, IBTK / Fold change vs veh, IBTK / RFU, ESF1 / Fold change vs veh, ESF1 / Fold change vs veh, TMEM50B / RFU, TAOK1 / Fold change vs veh, TAOK1 / RFU, ACBD3 / Fold change vs veh, ACBD3 / RFU, TMA16 / Fold change vs veh, TMA16 / RFU, RWDD3 / Fold change vs veh, RWDD3 / RFU, BCAT1 / Fold change vs veh, BCAT1 / RFU, EDEM3 / Fold change vs veh, EDEM3 / RFU, TMEM33 / Fold change vs veh, TMEM33 / RFU, WDR75 / Fold change vs veh, WDR75 / RFU, AHCTF1 / Fold change vs veh, AHCTF1 / RFU, TFRC / Fold change vs veh, TFRC / RFU, ZDHHC17 / Fold change vs veh, ZDHHC17 / RFU, NOM1 / Fold change vs veh, NOM1 / RFU, ARL8B / Fold change vs veh, ARL8B / RFU, ZBTB11 / Fold change vs veh, ZBTB11 / RFU, TAMM41 / Fold change vs veh, TAMM41 / RFU, KIAA1704 /// LOC100996395 / Fold change vs veh, KIAA1704 /// LOC100996395 / RFU, ING1 / Fold change vs veh, ING1 / RFU, TRMT61B / Fold change vs veh, TRMT61B / RFU, FUBP3 / Fold change vs veh, FUBP3 / RFU, TP53 / Fold change vs veh, TP53 / RFU, TNKS2 / Fold change vs veh, TNKS2 / RFU, ZFP14 / Fold change vs veh, ZFP14 / RFU, ACTR2 / Fold change vs veh, ACTR2 / RFU, PPP3R1 / Fold change vs veh, PPP3R1 / RFU, PIK3R1 / Fold change vs veh, PIK3R1 / RFU, HNRNPA1 / Fold change vs veh, HNRNPA1 / RFU, RNF170 / Fold change vs veh, RNF170 / RFU, ZNF28 / Fold change vs veh, ZNF28 / RFU, RNGTT / Fold change vs veh, RNGTT / RFU, OGT / Fold change vs veh, OGT / RFU, BRD1 / Fold change vs veh, BRD1 / RFU, MARS / Fold change vs veh, MARS / RFU, ZNF655 / Fold change vs veh, ZNF655 / RFU, FAHD1 / Fold change vs veh, FAHD1 / RFU, BDP1 / Fold change vs veh, BDP1 / RFU, LRRCC1 / Fold change vs veh, LRRCC1 / RFU, ARID1A / Fold change vs veh, ARID1A / RFU, ZNF146 / Fold change vs veh, ZNF146 / RFU, ZNF330 / Fold change vs veh, ZNF330 / RFU, GPN3 / Fold change vs veh, GPN3 / RFU, C9orf123 / Fold change vs veh, C9orf123 / RFU, N4BP2L2 / Fold change vs veh, N4BP2L2 / RFU, ARFIP1 / Fold change vs veh, ARFIP1 / RFU, FAM179B / Fold change vs veh, FAM179B / RFU, BCL10 / Fold change vs veh, BCL10 / RFU, UHRF1BP1L / Fold change vs veh, UHRF1BP1L / RFU, BET1 / Fold change vs veh, BET1 / RFU, CNOT2 / Fold change vs veh, CNOT2 / RFU, ZNF268 / Fold change vs veh, ZNF268 / Fold change vs veh, ZNF507 / RFU, DGCR2 / Fold change vs veh, DGCR2 / RFU, WDSUB1 / Fold change vs veh, WDSUB1 / Fold change vs veh, HSP90B1 /// MIR3652 / RFU, ADSS / Fold change vs veh, ADSS / RFU, GK / Fold change vs veh, GK / RFU, ZNF148 / Fold change vs veh, ZNF148 / RFU, TAF9 / Fold change vs veh, TAF9 / RFU, SLC1A5 / Fold change vs veh, SLC1A5 / RFU, SLMO2 / Fold change vs veh, SLMO2 / RFU, ABCC4 / Fold change vs veh, ABCC4 / RFU, LOC101060439 /// RAP1B / Fold change vs veh, LOC101060439 /// RAP1B / RFU, RFX7 / Fold change vs veh, RFX7 / RFU, GTPBP10 / Fold change vs veh, GTPBP10 / RFU, CNEP1R1 / Fold change vs veh, CNEP1R1 / RFU, BIVM-ERCC5 /// ERCC5 / Fold change vs veh, BIVM-ERCC5 /// ERCC5 / RFU, ILF3 / Fold change vs veh, ILF3 / RFU 11762660_at / Fold change /veh 11762660_at / RFU VCAN (11757783_s_at) / Fold change /veh VCAN (11757783_s_at) / RFU DDX43 (11728927_at) / Fold change /veh DDX43 (11728927_at) / RFU KRT8 (11758188_x_at) / Fold change /veh KRT8 (11758188_x_at) / RFU NKD1 (11759106_at) / Fold change /veh NKD1 (11759106_at) / RFU SRD5A1 (11742802_a_at) / Fold change /veh SRD5A1 (11742802_a_at) / RFU TPSAB1 /// TPSB2 (11721975_s_at) / Fold change /veh TPSAB1 /// TPSB2 (11721975_s_at) / RFU GSTM3 (11746129_a_at) / Fold change /veh GSTM3 (11746129_a_at) / RFU IL23R (11737362_x_at) / Fold change /veh IL23R (11737362_x_at) / RFU TMEM51 (11727254_a_at) / Fold change /veh TMEM51 (11727254_a_at) / RFU PIWIL2 (11732686_x_at) / Fold change /veh PIWIL2 (11732686_x_at) / RFU ORM1 (11744905_x_at) / Fold change /veh ORM1 (11744905_x_at) / RFU CCDC152 (11743942_at) / Fold change /veh CCDC152 (11743942_at) / RFU ECM1 (11717891_a_at) / Fold change /veh ECM1 (11717891_a_at) / RFU IL23R (11748794_a_at) / Fold change /veh IL23R (11748794_a_at) / RFU TNFAIP8L3 (11732012_x_at) / Fold change /veh TNFAIP8L3 (11732012_x_at) / RFU MBOAT4 (11741988_at) / Fold change /veh MBOAT4 (11741988_at) / RFU 11764193_at / Fold change /veh 11764193_at / RFU TMEM53 (11763286_at) / Fold change /veh TMEM53 (11763286_at) / RFU MAGEB2 (11727129_at) / Fold change /veh MAGEB2 (11727129_at) / RFU TMEM200A (11744735_a_at) / Fold change /veh TMEM200A (11744735_a_at) / RFU CCDC152 (11751479_a_at) / Fold change /veh CCDC152 (11751479_a_at) / RFU FAM211A (11726209_a_at) / Fold change /veh FAM211A (11726209_a_at) / RFU RGS16 (11746705_a_at) / Fold change /veh RGS16 (11746705_a_at) / RFU VCAN (11755009_s_at) / Fold change /veh VCAN (11755009_s_at) / RFU RHOB (11743442_s_at) / Fold change /veh RHOB (11743442_s_at) / RFU RGS16 (11720943_a_at) / Fold change /veh RGS16 (11720943_a_at) / RFU RGS16 (11720944_at) / Fold change /veh RGS16 (11720944_at) / RFU, VPS4B / Fold change vs veh, VPS4B / RFU, CREB1 / Fold change vs veh, CREB1 / RFU, DNAJC13 / Fold change vs veh, DNAJC13 / RFU, GNAQ / Fold change vs veh, GNAQ / RFU, CDK5R1 / Fold change vs veh, CDK5R1 / RFU, ZRANB3 / Fold change vs veh, ZRANB3 / RFU, CUL4A / Fold change vs veh, CUL4A / RFU, CCNY / Fold change vs veh, CCNY / RFU, UFL1 / Fold change vs veh, UFL1 / RFU, COG3 / Fold change vs veh, COG3 / RFU, DIAPH2 / Fold change vs veh, DIAPH2 / RFU, SKA2 / Fold change vs veh, SKA2 / RFU, AFF3 / Fold change vs veh, AFF3 / RFU, LMF1 / Fold change vs veh, LMF1 / RFU, IPO11 / Fold change vs veh, IPO11 / RFU, DFFB / Fold change vs veh, DFFB / RFU, FOXP1 / Fold change vs veh, FOXP1 / RFU, CARD8 / Fold change vs veh, CARD8 / RFU, STRN3 / Fold change vs veh, STRN3 / RFU, ADK / Fold change vs veh, ADK / RFU, RASSF2 / Fold change vs veh, RASSF2 / RFU, WIPF1 / Fold change vs veh, WIPF1 / RFU, LARP1B / Fold change vs veh, LARP1B / RFU, RASA1 / Fold change vs veh, RASA1 / RFU, RB1 / Fold change vs veh, RB1 / RFU, PPFIA1 / Fold change vs veh, PPFIA1 / RFU, MAT2A / Fold change vs veh, MAT2A / RFU, CCT5 / Fold change vs veh, CCT5 / RFU, WDR92 / Fold change vs veh, WDR92 / RFU, CUX1 / Fold change vs veh, CUX1 / RFU, TTC7A / Fold change vs veh, TTC7A / RFU, TMEM135 / Fold change vs veh, TMEM135 / RFU, DEPTOR / Fold change vs veh, DEPTOR / RFU, CPM / Fold change vs veh, CPM / RFU, DNAJB6 / Fold change vs veh, DNAJB6 / RFU, CACNA2D3 / Fold change vs veh, CACNA2D3 / RFU, DTX4 / Fold change vs veh, DTX4 / RFU, TFCP2 / Fold change vs veh, TFCP2 / RFU, GMCL1 /// GMCL1P1 / Fold change vs veh, GMCL1 /// GMCL1P1 / RFU, AEBP2 / Fold change vs veh, AEBP2 / RFU, SNHG1 /// SNORD22 /// SNORD25 /// SNORD26 /// SNORD27 /// SNORD28 /// SNORD29 /// SNORD31 / Fold change vs veh, SNHG1 /// SNORD22 /// SNORD25 /// SNORD26 /// SNORD27 /// SNORD28 /// SNORD29 /// SNORD31 / Fold change (Aza/veh), C12orf56 (ProbeSet 11735607_a_at) / Fold change (ACY-1035/veh), C12orf56 (ProbeSet 11735607_a_at) / Fold change (Aza/veh), FGFR1OP (ProbeSet 11751329_s_at) / Fold change (ACY-1035/veh), FGFR1OP (ProbeSet 11751329_s_at) / Fold change (Aza/veh), VPS36 (ProbeSet 11739960_a_at) / Fold change (ACY-1035/veh), VPS36 (ProbeSet 11739960_a_at) / RFU SYPL1 (11715823_x_at) / Fold change /veh SYPL1 (11715823_x_at) / RFU IGFBP7 (11715501_s_at) / Fold change /veh IGFBP7 (11715501_s_at) / RFU REEP3 (11722064_at) / Fold change /veh REEP3 (11722064_at) / RFU IGLL1 (11728026_x_at) / Fold change /veh IGLL1 (11728026_x_at): dose or concentration left out as unconfirmed. Conditions: ProbeSet 11725217_a_at; LIST B.

Regarding `Nc1ccc(-c2cccs2)cc1NC(=O)c1ccc2c(c1)cc(C1CC1)n2CCN1CCOCC1` [ACY-1035], the “RFU, WDSUB1” value stood at 59.59 RFU.
